Activity calls are given as the source filed them. The rule behind the calls is not given here.

The test system of assay [1] is Keratinocyte. Nature of the assay: Antiproliferative activity against mouse keratinocytes at 7 nM. Format: functional, cell-based.
Assay [2] concerns Keratinocyte. The assay is described as follows: Antiproliferative activity against mouse keratinocytes at 3 to 7 nM. It is filed as functional, cell-based.

Regarding `C=C1/C(=C\C=C2/CCC[C@]3(C)C([C@H](C)CCCS(=O)(=O)C(F)(F)F)=CC[C@@H]23)C[C@@H](O)C[C@@H]1O`, in the assay on Keratinocyte [1], the result was Active.

With `C=C1/C(=C\C=C2/CCC[C@]3(C)[C@@H]([C@@H](C)OCCCS(=O)(=O)C(F)(F)F)CC[C@@H]23)C[C@@H](O)C[C@@H]1O`, in the assay with Keratinocyte [2], the outcome was Active.

These data come from ChEMBL document CHEMBL1149616, “Antiproliferative, low-calcemic, fluorinated sulfone analogs of 1alpha,25-dihydroxyvitamin D3: chemical synthesis and biological evaluation” (Bioorg Med Chem, 2007).
